Results taken from the NIST ThermoML archive (doi:10.1016/j.jct.2010.04.018).

Assay: cn = amount concentration of the nth substance listed, in mol/dm3
Conditions: 101 kPa, Liquid; for mass density: Vibrating tube method; for speed of sound: Sing-around technique in a fixed-path interferometer

O [water] + Oc1ccccc1O
c2 = 0
Conditions | mass density [kg/m3] | speed of sound [m/s]
283.15 K | 999.749 | –
293.15 K | 998.252 | –
313.15 K | 992.273 | 1528.8

Oc1ccccc1O [1,2-benzenediol] + O
Conditions | mass density, 283.15 K [kg/m3] | mass density, 293.15 K [kg/m3] | mass density, 298.15 K [kg/m3] | mass density, 303.15 K [kg/m3] | mass density, 313.15 K [kg/m3] | speed of sound, 283.15 K [m/s] | speed of sound, 293.15 K [m/s] | speed of sound, 298.15 K [m/s] | speed of sound, 303.15 K [m/s] | speed of sound, 313.15 K [m/s]
c1 = 0.0354 | 1000.62 | 999.093 | 997.92 | 996.509 | 993.058 | 1449.9 | 1484.1 | 1498.2 | 1510.5 | 1529.9
c1 = 0.1697 | 1003.9 | 1002.24 | 1001.01 | 999.543 | 995.992 | 1457.9 | 1490.6 | 1504 | 1515.7 | 1534.1
c1 = 0.346 | 1008.13 | 1006.3 | 1004.99 | 1003.46 | 999.774 | 1467.9 | 1498.7 | 1511.4 | 1522.2 | 1539.2
c1 = 0.4721 | 1011.09 | 1009.14 | 1007.78 | 1006.19 | 1002.41 | 1474.5 | 1504.1 | 1516.2 | 1526.6 | 1542.6
c1 = 0.5008 | 1011.78 | 1009.79 | 1008.42 | 1006.82 | 1003.02 | 1476.5 | 1505.4 | 1517.3 | 1527.5 | 1543.4
c1 = 0.6589 | 1015.4 | 1013.26 | 1011.82 | 1010.15 | 1006.23 | 1484 | 1511.8 | 1523 | 1532.7 | 1547.3
c1 = 0.7524 | 1017.53 | 1015.29 | 1013.81 | 1012.11 | 1008.12 | 1488.5 | 1515.4 | 1526.3 | 1535.5 | 1549.5

Oc1ccc(O)cc1 [1,4-benzenediol] + O
Conditions | mass density, 283.15 K [kg/m3] | mass density, 293.15 K [kg/m3] | mass density, 298.15 K [kg/m3] | mass density, 303.15 K [kg/m3] | mass density, 313.15 K [kg/m3] | speed of sound, 283.15 K [m/s] | speed of sound, 293.15 K [m/s] | speed of sound, 298.15 K [m/s] | speed of sound, 303.15 K [m/s] | speed of sound, 313.15 K [m/s]
c1 = 0.011 | 1000 | 998.494 | 997.334 | 995.934 | 992.505 | 1448.2 | 1482.6 | 1496.9 | 1509.3 | 1529
c1 = 0.0342 | 1000.53 | 999.001 | 997.84 | 996.428 | 992.992 | 1449.2 | 1483.3 | 1497.5 | 1509.9 | 1529.4
c1 = 0.0554 | 1001.02 | 999.463 | 998.3 | 996.878 | 993.436 | 1450 | 1483.9 | 1498.1 | 1510.3 | 1529.8
c1 = 0.1035 | 1002.11 | 1000.5 | 999.338 | 997.892 | 994.437 | 1451.9 | 1485.2 | 1499.3 | 1511.5 | 1530.6
c1 = 0.201 | 1004.28 | 1002.58 | 1001.41 | 999.925 | 996.443 | 1455.5 | 1487.6 | 1501.8 | 1513.7 | 1532.2
c1 = 0.2996 | 1006.44 | 1004.65 | 1003.48 | 1001.95 | 998.439 | 1458.9 | 1489.8 | 1504.1 | 1515.7 | 1533.7
c1 = 0.4022 | 1008.64 | 1006.75 | 1005.59 | 1004.02 | 1000.49 | 1462.2 | 1492 | 1506.4 | 1517.8 | 1535.2

Oc1cccc(O)c1 [1,3-benzenediol] + O
Conditions | mass density, 283.15 K [kg/m3] | mass density, 293.15 K [kg/m3] | mass density, 298.15 K [kg/m3] | mass density, 303.15 K [kg/m3] | mass density, 313.15 K [kg/m3] | speed of sound, 283.15 K [m/s] | speed of sound, 293.15 K [m/s] | speed of sound, 298.15 K [m/s] | speed of sound, 303.15 K [m/s] | speed of sound, 313.15 K [m/s]
c1 = 0.0479 | 1000.93 | 999.387 | 998.206 | 996.776 | 993.338 | 1449.5 | 1483.7 | 1497.8 | 1510 | 1529.5
c1 = 0.101 | 1002.08 | 1000.51 | 999.325 | 997.875 | 994.393 | 1451.5 | 1485.2 | 1499.1 | 1511.2 | 1530.3
c1 = 0.1786 | 1003.79 | 1002.17 | 1000.95 | 999.476 | 995.941 | 1454.3 | 1487.3 | 1500.9 | 1512.8 | 1531.4
c1 = 0.3402 | 1007.38 | 1005.58 | 1004.28 | 1002.77 | 999.12 | 1459.9 | 1491.6 | 1504.7 | 1515.9 | 1533.7
c1 = 0.4522 | 1009.8 | 1007.9 | 1006.56 | 1005 | 1001.29 | 1463.5 | 1494.5 | 1507.1 | 1518 | 1535.2
c1 = 0.5654 | 1012.22 | 1010.22 | 1008.84 | 1007.25 | 1003.46 | 1467.2 | 1497.3 | 1509.6 | 1520.1 | 1536.6
c1 = 0.7623 | 1016.36 | 1014.19 | 1012.74 | 1011.08 | 1007.17 | 1473.5 | 1502 | 1513.7 | 1523.7 | 1539
